Legend:
[1] = Stability test (2): salt crystalline forms at high temperature, high humidity and light, detection by HPLC and XRPD; type: physicochemical; conditions: for total impurities (%): HPLC
[2] = Evaluation of hygroscopicity by Dynamic Moisture Sorption Analyzer (DVS), with XRPD before and after DVS; type: physicochemical; conditions: for weight increase by hygroscopy (80% RH): DVS; for XRPD change: XRPD before and after DVS
[3] = light (RT, white light 6980 lux, UV 282 μW/cm2), 5 days
[4] = light (RT, white light 6980 lux, UV 282 μW/cm2), 10 days
[5] = 60° C. (open), 5 days, listed as XXXVI
[6] = 60° C. (open), 10 days, listed as XXXVI
[7] = 60° C. (open), 30 days, listed as XXXVI
[8] = light (RT, white light 6980 lux, UV 282 μW/cm2), 5 days, listed as XXXVI
[9] = light (RT, white light 6980 lux, UV 282 μW/cm2), 10 days, listed as XXXVI

| Compound | XPRD ([1]; 60° C. (open), 5 days) | XPRD ([1]; 60° C. (open), 10 days) | XPRD ([1]; 60° C. (open), 30 days) | total impurities (%) ([1]; 60° C. (open), 5 days) | total impurities (%) ([1]; 60° C. (open), 10 days) | total impurities (%) ([1]; 60° C. (open), 30 days) | total impurities (%) ([1]; RT/75% RH (open), 5 days) | total impurities (%) ([1]; RT/75% RH (open), 10 days) | total impurities (%) ([1]; RT/75% RH (open), 30 days) | total impurities (%) [1, 3] [%] | total impurities (%) [1, 4] [%] | total impurities (%) ([1]; the initial sample, 0 day) | XPRD ([1]; RT/75% RH (open), 5 days) | XPRD ([1]; RT/75% RH (open), 10 days) | XPRD ([1]; RT/75% RH (open), 30 days) | XPRD [1, 3] | XPRD [1, 4] | XPRD ([1]; the initial sample, 0 day) | weight increase by hygroscopy (80% RH) [2] [%] | XRPD change [2] | other results |
| --- | --- | --- | --- | --- | --- | --- | --- | --- | --- | --- | --- | --- | --- | --- | --- | --- | --- | --- | --- | --- | --- |
| O=C(NS(=O)(=O)c1ccc(NC[C@H]2COCCO2)c([N+](=O)[O-])c1)c1ccc(N2CCN(CC3=C(c4ccc(Cl)cc4)CC4(CCC4)CC3)CC2)cc1Oc1cnc2[nH]ccc2c1.O=S(=O)(O)O [XXX] | No change | No change | No change | 0.89 | 0.92 | 0.83 | 0.82 | 0.86 | 0.74 | 0.82 | 1.02 | 0.80 | No change | No change | No change | No change | No change | XXX | 0.90 | no change |  |
| O=C(NS(=O)(=O)c1ccc(NC[C@H]2COCCO2)c([N+](=O)[O-])c1)c1ccc(N2CCN(CC3=C(c4ccc(Cl)cc4)CC4(CCC4)CC3)CC2)cc1Oc1cnc2[nH]ccc2c1.O=C(O)CC(O)(CC(=O)O)C(=O)O [XXXIX] | No change | No change | No change | 0.90 | 0.89 | 0.86 | 0.80 | 0.82 | 0.81 | 0.88 | 1.02 | 0.76 | No change | No change | No change | No change | No change | XXXIX | 0.37 | no change |  |
| O=C(NS(=O)(=O)c1ccc(NCC2COCCO2)c([N+](=O)[O-])c1)c1ccc(N2CCN(CC3=C(c4ccc(Cl)cc4)CC4(CCC4)CC3)CC2)cc1Oc1cnc2[nH]ccc2c1 (centres unmarked) [citrate crystalline Form XXXVI] |  |  |  |  |  |  |  |  |  |  |  |  |  |  |  |  |  | XXXVI |  | no change | XPRD [1, 5]: changed; XPRD [1, 6]: changed; XPRD [1, 7]: changed; total impurities (%) [1, 5]: 0.97%; total impurities (%) [1, 6]: 1.01%; total impurities (%) [1, 7]: 0.98%; total impurities (%) ([1]; RT/75% RH (open), 5 days, listed as XXXVI): 0.95%; total impurities (%) ([1]; RT/75% RH (open), 10 days, listed as XXXVI): 0.95%; total impurities (%) ([1]; RT/75% RH (open), 30 days, listed as XXXVI): 1.00%; total impurities (%) [1, 8]: 1.06%; total impurities (%) [1, 9]: 1.36%; total impurities (%) ([1]; the initial sample, 0 day, listed as XXXVI): 1.02%; XPRD [1, 8]: no change; XPRD [1, 9]: no change; weight increase by hygroscopy (80% RH) ([2]; listed as XXXVI): 2.00% |
| CS(=O)(=O)O.O=C(NS(=O)(=O)c1ccc(NC[C@H]2COCCO2)c([N+](=O)[O-])c1)c1ccc(N2CCN(CC3=C(c4ccc(Cl)cc4)CC4(CCC4)CC3)CC2)cc1Oc1cnc2[nH]ccc2c1 [XXXIII] |  |  |  | 0.90 | 0.91 | 1.11 | 0.67 | 0.71 | 0.70 | 0.84 | 1.09 | 0.67 |  |  |  | No change | No change | XXXIII | 7.82 | changed |  |
| O=C(NS(=O)(=O)c1ccc(NC[C@H]2COCCO2)c([N+](=O)[O-])c1)c1ccc(N2CCN(CC3=C(c4ccc(Cl)cc4)CC4(CCC4)CC3)CC2)cc1Oc1cnc2[nH]ccc2c1.O=S(=O)(O)c1ccccc1 [XXVII] | No change | No change | No change | 1.26 | 1.37 | 1.33 | 1.22 | 1.25 | 1.27 | 1.20 | 1.28 | 1.19 | No change | No change | No change | No change | No change | XXVII | 3.32 | no change |  |
| Cc1ccc(S(=O)(=O)O)cc1.O=C(NS(=O)(=O)c1ccc(NC[C@H]2COCCO2)c([N+](=O)[O-])c1)c1ccc(N2CCN(CC3=C(c4ccc(Cl)cc4)CC4(CCC4)CC3)CC2)cc1Oc1cnc2[nH]ccc2c1 [XXIX] | No change | No change | No change | 0.64 | 0.65 | 0.66 | 0.65 | 0.65 | 0.60 | 0.64 | 0.59 | 0.65 | No change | No change | No change | No change | No change | XXIX | 0.948 | no change |  |
| O=C(NS(=O)(=O)c1ccc(NC[C@H]2COCCO2)c([N+](=O)[O-])c1)c1ccc(N2CCN(CC3=C(c4ccc(Cl)cc4)CC4(CCC4)CC3)CC2)cc1Oc1cnc2[nH]ccc2c1.O=C(O)/C=C\C(=O)O [XXIV] | No change | No change | No change | 0.48 | 0.48 | 0.61 | 0.50 | 0.50 | 0.50 | 0.73 | 0.72 | 0.50 | No change | No change | No change | No change | No change | XXIV | 1.246 | changed |  |

Reference: patent publication US12358912B2 (ASCENTAGE PHARMA (SUZHOU) CO., LTD., priority 2020, dated 2025)
